Marks after values point to notes of the source that are not given here.
How the values were obtained:
[1] = tested on: L-02 normal liver cell; assay: MTT assay, L-02 normal cells; format: cell-based, human; conditions: Homo sapiens, 48 h
Summary of the method: (§1)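 Cell lines plated in 96-well plates and exposed to compounds; anti-proliferative activity determined by MTT read-out as inhibition of net cell growth.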

[2] = tested on: HCT116 colectal cancer cell; assay: MTT anti-proliferative assay, HCT116; format: cell-based, human; conditions: for IC50: Homo sapiens, HCT-116, MTT, 48 h
Summary of the method: as §1

[3] = tested on: MCF-10A normal breast cell; assay: MTT assay, MCF-10A normal cells; format: cell-based, human; conditions: Homo sapiens, MCF-10A, 48 h
Summary of the method: as §1

[4] = tested on: L-02 normal cells; set-up: method as in PMID 27887843, PMID 29516624, PMID 30244610; conditions: Fig. 1; cited from earlier work
[5] = tested on: HepG2 hepatoma cell; assay: MTT anti-proliferative assay, HepG2; format: cell-based, human; conditions: Homo sapiens, HepG2; MTT, 48 h; read-out: IC50 HepG-2
Summary of the method: as §1

[6] = tested on: A549 lung cancer cell; assay: MTT anti-proliferative assay, A549; format: cell-based, human; conditions: Homo sapiens, A549; MTT, 48 h
Summary of the method: as §1

[7] = tested on: MGC-803 late stage differentiation gastric cancer cell; assay: MTT anti-proliferative assay, MGC-803; format: cell-based, human; conditions: for IC50: Homo sapiens, MGC-803, MTT, 48 h
Summary of the method: as §1

[8] = tested on: MCF-7 breast cancer cell; assay: MTT anti-proliferative assay, MCF-7; format: cell-based, human; conditions: for IC50: Homo sapiens, MCF7, MTT, 48 h
Summary of the method: as §1

[9] = tested on: BEL-7402 liver cancer cell; assay: MTT anti-proliferative assay, BEL-7402; format: cell-based, human; conditions: Homo sapiens, Bel-7402; MTT, 48 h
Summary of the method: as §1

[10] = tested on: diffuse large B-cell lymphoma SU-DHL-10 cell; assay: MTT anti-proliferative assay, SU-DHL-10; format: cell-based, human; conditions: Homo sapiens, SU-DHL10; MTT, 48 h; read-out: IC50 SU-DHL-10
Summary of the method: as §1

[11] = tested on: SGC-7901 early differentiation gastric cancer cell; assay: MTT anti-proliferative assay, SGC-7901; format: cell-based, human; conditions: for IC50: Homo sapiens, SGC-7901, MTT, 48 h
Summary of the method: as §1

[12] = tested on: Raji B lymphoblastoid cell; assay: MTT anti-proliferative assay, Raji; format: cell-based, human; conditions: for IC50: Homo sapiens, Raji, MTT, 48 h, read-out: IC50 Raji
Summary of the method: as §1

[13] = tested on: MGC-803 cancer cells; set-up: method as in PMID 29516624, PMID 30244610; conditions: Fig. 1; cited from earlier work
[14] = tested on: HeLa cervical cancer cell; assay: MTT anti-proliferative assay, HeLa; format: cell-based, human; conditions: Homo sapiens, HeLa; MTT, 48 h
Summary of the method: as §1

[15] = tested on: AGS gastric cancer cell; assay: MTT anti-proliferative assay, AGS; format: cell-based, human; conditions: Homo sapiens; MTT, 48 h
Summary of the method: as §1

[16] = tested on: HeLa cancer cells; set-up: method as in PMID 27887843; conditions: Fig. 1; cited from earlier work

| SMILES | IC50 [1] | IC50 [2] | IC50 [3] | IC50 [4] | IC50 [5] | IC50 [6] | IC50 [7] | IC50 [8] | IC50 [9] | IC50 [10] | IC50 [11] | IC50 [12] | IC50 [13] | IC50 [14] | IC50 [15] | other results |
| --- | --- | --- | --- | --- | --- | --- | --- | --- | --- | --- | --- | --- | --- | --- | --- | --- |
| COc1ccc(/C=C\c2cc(OC)c(OC)c(OC)c2)cc1O [CA-4, combretastatin A-4, reference compound] | 1.1 ± 0.03 µM | 0.16 ± 0.001 µM | 3.2 ± 1.2 µM | 1.1 ± 0.03 µM | > 100 µM | > 100 µM | 0.06 ± 0.02 µM | 0.2 ± 0.1 µM | 2 ± 0.03 µM | 1.1 ± 0.1 µM | 0.3 ± 0.001 µM | 0.18 ± 0.001 µM | 0.06 ± 0.01 µM | > 100 µM | 3.4 ± 0.01 µM | SI (selectivity index), IC50 (L-02)/IC50 (HCT-116) [2]: > 6.8^c; SI (selectivity index), IC50 (L-02)/IC50 (MGC-803) [7]: > 18.3^c; SI (selectivity index), IC50 (MCF-10A)/IC50 (MCF-7) [8]: > 14.6^d; SI (selectivity index), IC50 (L-02)/IC50 (SGC-7901) [11]: > 3.6^c; SI (selectivity index), IC50 (L-02)/IC50 (Raji) [12]: > 5.8^c |
| COc1cc(/C(C#N)=C/c2ccc(C)cc2)cc(OC)c1OC [Compound 1, (Z)-3-(p-tolyl)-2-(3,4,5-trimethoxyphenyl)acrylonitrile] |  |  |  | > 100 µM |  |  |  |  |  |  |  |  | < 0.01 µM |  |  |  |
| COc1cc(OC)cc(/C(C#N)=C/c2ccc(Br)cc2)c1 [Compound 2, (Z)-3-(4-bromophenyl)-2-(3,5-dimethoxyphenyl)acrylonitrile] |  |  |  | > 100 µM |  |  |  |  |  |  |  |  |  |  |  | IC50 [16]: 4.2 µM |
| N#C/C(=C\c1cn(-c2ccccc2)nn1)c1ccc(OC(F)(F)F)cc1 [Compound 7a] | > 100 µM | > 100 µM | > 100 µM |  | > 100 µM | > 100 µM | > 100 µM | > 100 µM | > 100 µM | > 100 µM | > 100 µM | > 100 µM |  | > 100 µM | > 100 µM |  |
| COc1cccc(-n2cc(/C=C(\C#N)c3ccc(OC(F)(F)F)cc3)nn2)c1 [Compound 7b] | > 100 µM | > 100 µM | > 100 µM |  | > 100 µM | > 100 µM | > 100 µM | > 100 µM | > 100 µM | > 100 µM | > 100 µM | > 100 µM |  | > 100 µM | > 100 µM |  |
| COc1cc(-n2cc(/C=C(\C#N)c3ccc(OC(F)(F)F)cc3)nn2)cc(OC)c1OC [Compound 7c] | > 100 µM | > 100 µM | > 100 µM |  | > 100 µM | > 100 µM | > 100 µM | > 100 µM | > 100 µM | > 100 µM | > 100 µM | > 100 µM |  | > 100 µM | > 100 µM | melting point: 170 to 172 °C |
